Tests used:
NLRP3 = molecular target: T1, NLRP3 (Homo sapiens, UniProt Q96P20); assay: Measurement of IL-1β production in PMA-differentiated THP-1 cells (NLRP3 hIL1B); format: cell-based; conditions: read-out: NLRP3 hILIB IC50
T1 construct: host or cells: PMA-differentiated THP-1 cells
Method: Measurement of IL-1β Production in PMA-Differentiated THP-1 Cells
THP-1 cells were purchased from the American Type Culture Collection and sub-cultured according to instructions from the supplier. Prior to experiments, cells were cultured in RPMI 1640 containing 10% heat inactivated FBS, penicillin (100 units/ml) and streptomycin (100 μg/ml), and maintained in log phase prior to experimental setup. Prior to the experiment THP-1 were treated with PMA (Phorbol 12-myristate 13-acetate) ([…]) for 24 hours. The day of the experiment the media was removed and attaching cells were treated with trypsin for 2 minutes, cells were then collected, washed with PBS (phosphate buffer saline), spin down, resuspended in 2% heat inactivated FBS with RPMI at a concentration of 1×10^6 cells/ml, and 100 μl was plated in a 96 well plate. Compounds were dissolved in dimethyl sulfoxide (DMSO) and added to the culture medium to achieve desired concentration (e.g. 100, 30, 10, 3, 1, 0.3 or 0.1 μM). Cells were incubated with compounds for 4 hours. Cell free supernatant was collected and the production of IL-1β was evaluated by ELISA. A vehicle only control was run concurrently with each experiment. Final DMSO concentration was 1%.
Measurement of IL-1β Production in PMA-Differentiated THP-1 Cells (Alternative Procedure)
THP-1 cells were purchased from the American Type Culture Collection and sub-cultured according to instructions from the supplier. Prior to experiments, cells were cultured in RPMI 1640 containing 10% heat inactivated FBS, penicillin (100 units/ml), streptomycin (100 μg/ml), HEPES (10 mM) and sodium pyruvate (1 mM) and maintained in log phase prior to experimental setup. Prior to the experiment, THP-1 cells were treated with PMA (Phorbol 12-myristate 13-acetate) (20 μg/ml) overnight. The day of the experiment, the media was removed and attached cells were treated with trypsin for 2 minutes, cells were then collected, washed with PBS (phosphate buffer saline), pelleted by centrifugation and resuspended in 2% heat inactivated FBS with RPMI at a concentration of 50,000 cells/well in a 384 well plate. Cell free supernatant was collected and the production of IL-1β was evaluated by ELISA. Compounds were dissolved in dimethyl sulfoxide (DMSO) and added to the culture medium to achieve desired concentration (e.g. 100, 30, 10, 3, 1, 0.3 or 0.1 μM). Cells were incubated with compounds for 2 hours. A vehicle only control was run concurrently with each experiment. Final DMSO concentration was 1%.
Measurement of IL-1β Production—hTRF Protocol (Second Alternative Procedure)
Serial dilutions of compounds in DMSO were added to low volume 384 well plates at 100 nl/well using an ECHO 550 acoustic dispenser (Labcyte) to achieve final starting concentration of 10 μM in assay.
THP-1 cells in RPMI (Gibco, 11875) media with 10% FBS at a density of 1×10^6 cell/ml in a T175 flask were treated with a final concentration of phorbol 12-myristate 13-acetate (PMA) (Sigma, P1585) of 50 ng/ml overnight at 37° C. at 5% CO2 for differentiation. Cells were harvested the next day after rinsing well with dPBS using 0.5% trypsin. A cell solution was prepared of 1×10^6 cells/ml for 50,000 cells in 50 μl/well in RPMI media with 2% FBS. Cells were plated using a multichannel pipette onto the compound dilutions in Greiner, 384 well, black clear bottom tissue culture treated plates (781090). The plates were incubated in 37° C. incubator at 5% CO2 for 2 hours.
After the 2 hour incubation, the cell plates were spun in the centrifuge for 5 minutes at 1200 rpm. Using the Felix (CyBio), 8 μl of the supernatant was transferred to 384 well, low volume, white proxy plates. (Perkin Elmer, 6008230). A human IL1beta hTRF kit was used to analyze the supernatant (CISBIO, 62HIL1BPEG). The kit instructions were followed for preparing the IL1Beta standard curve and then the antibodies from the kit were diluted 1:40 rather than 1:20 as kit instructed. […]

human TLR8 = molecular target: T2, human TLR8 (Homo sapiens, UniProt Q9NR97); assay: In vitro human TLR8 reporter assay (HEK-Blue cells, NF-kB/AP1-inducible SEAP); format: cell-based; conditions: HEK-Blue cells expressing TLR8, SEAP reporter; read-out: TLR8 Agonist EC50
T2 construct: host or cells: HEK-Blue cells (human HEK) co-expressing TLR8 and an NF-kB/AP1-inducible SEAP reporter
T2 sequence (Q9NR97 27-1041): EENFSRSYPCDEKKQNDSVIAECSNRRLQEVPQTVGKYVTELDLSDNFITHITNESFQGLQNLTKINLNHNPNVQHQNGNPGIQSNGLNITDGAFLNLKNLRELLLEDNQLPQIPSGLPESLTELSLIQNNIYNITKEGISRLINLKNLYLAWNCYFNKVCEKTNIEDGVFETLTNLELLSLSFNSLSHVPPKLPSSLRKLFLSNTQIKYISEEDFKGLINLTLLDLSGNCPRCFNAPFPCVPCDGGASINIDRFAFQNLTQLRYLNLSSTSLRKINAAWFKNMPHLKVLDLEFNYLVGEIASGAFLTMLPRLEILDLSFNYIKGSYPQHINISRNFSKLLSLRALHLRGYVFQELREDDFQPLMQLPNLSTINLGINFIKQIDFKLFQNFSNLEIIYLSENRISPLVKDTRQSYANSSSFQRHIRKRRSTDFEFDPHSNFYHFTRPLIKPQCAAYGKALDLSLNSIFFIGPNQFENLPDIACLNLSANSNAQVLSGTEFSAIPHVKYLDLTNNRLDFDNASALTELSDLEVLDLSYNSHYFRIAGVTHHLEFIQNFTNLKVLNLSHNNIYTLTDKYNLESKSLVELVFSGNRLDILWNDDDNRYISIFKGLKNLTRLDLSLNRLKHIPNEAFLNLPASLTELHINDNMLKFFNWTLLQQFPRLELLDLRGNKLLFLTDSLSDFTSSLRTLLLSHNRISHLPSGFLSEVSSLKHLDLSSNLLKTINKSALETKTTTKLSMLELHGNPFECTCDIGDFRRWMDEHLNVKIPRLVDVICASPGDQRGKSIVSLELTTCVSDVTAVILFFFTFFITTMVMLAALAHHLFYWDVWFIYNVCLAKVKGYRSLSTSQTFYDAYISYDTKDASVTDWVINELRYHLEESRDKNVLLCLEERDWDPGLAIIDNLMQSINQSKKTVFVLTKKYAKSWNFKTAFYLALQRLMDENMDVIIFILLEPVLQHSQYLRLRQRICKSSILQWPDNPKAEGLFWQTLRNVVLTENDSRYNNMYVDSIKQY
Method: In Vitro Human TLR7 and TLR8 Binding Reporter Assays
Logarithmically-growing human HEK-Blue cells co-expressing a TLR7 or TLR8 gene and a NF-kB/AP1-inducible SEAP (secreted embryonic alkaline phosphatase; Invivogen, San Diego, Calif.) reporter gene are added to individual wells of a 384-well plate (15,000 cells per 20 μL per well) and maintained for 24 h at 37° C., 5% CO2. Test compounds or DMSO are distributed to separate wells the next day using acoustic liquid handling technology (100 nL per well) and cells are subsequently incubated for 18 h at 37° C., 5% CO2. Cellular SEAP production is measured using an Envision plate reader instrument thirty minutes after adding freshly-made Quanti-Blue reagent (prepared by following manufacturer instructions; Invivogen, San Diego, Calif.) to the HEK-Blue TLR Nf-kB-SEAP cell reactions. All EC50 values (half-maximal effective concentration) are determined using proprietary data analysis software. Normalized EC50 value=absolute value determined by setting 100% Ymax using a reference standard RLU (relative light unit) values from cells treated with 50 μM of the reference standard.

T1 sequence (Q96P20 whole entry): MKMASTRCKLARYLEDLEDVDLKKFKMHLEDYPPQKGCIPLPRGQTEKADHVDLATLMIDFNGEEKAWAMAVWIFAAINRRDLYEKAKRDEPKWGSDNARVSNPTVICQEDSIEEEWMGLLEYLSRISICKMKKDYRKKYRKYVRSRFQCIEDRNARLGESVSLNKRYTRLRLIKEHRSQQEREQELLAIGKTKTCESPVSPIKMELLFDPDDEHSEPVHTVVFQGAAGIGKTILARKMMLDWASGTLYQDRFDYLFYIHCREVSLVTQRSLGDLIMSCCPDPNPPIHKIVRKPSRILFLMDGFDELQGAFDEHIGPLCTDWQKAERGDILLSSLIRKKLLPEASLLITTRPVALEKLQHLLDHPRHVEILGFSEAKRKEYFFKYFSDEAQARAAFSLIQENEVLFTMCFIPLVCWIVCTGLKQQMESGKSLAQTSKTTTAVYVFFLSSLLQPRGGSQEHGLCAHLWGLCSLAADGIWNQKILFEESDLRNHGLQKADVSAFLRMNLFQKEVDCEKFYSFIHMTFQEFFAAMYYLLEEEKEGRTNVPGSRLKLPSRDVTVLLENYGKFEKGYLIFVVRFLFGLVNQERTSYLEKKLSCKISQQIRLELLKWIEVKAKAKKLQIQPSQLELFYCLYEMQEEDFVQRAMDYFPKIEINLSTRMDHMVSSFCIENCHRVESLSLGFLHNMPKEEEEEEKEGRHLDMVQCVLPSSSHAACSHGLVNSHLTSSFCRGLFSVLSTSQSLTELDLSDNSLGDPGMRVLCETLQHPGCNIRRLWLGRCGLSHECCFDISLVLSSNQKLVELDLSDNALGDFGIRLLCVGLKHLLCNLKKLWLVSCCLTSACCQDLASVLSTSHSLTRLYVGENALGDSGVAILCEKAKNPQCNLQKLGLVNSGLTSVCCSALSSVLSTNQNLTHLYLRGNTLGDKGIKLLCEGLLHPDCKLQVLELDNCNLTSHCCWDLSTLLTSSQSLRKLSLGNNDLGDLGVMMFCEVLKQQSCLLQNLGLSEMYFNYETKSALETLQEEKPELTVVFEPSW

Row | SMILES | IC50 (NLRP3) | EC50 (human TLR8)
1 | COC1CN(Cc2nc3c(N)nc4cc(-c5cc[nH]n5)ccc4c3n2C2CCC2)C1 [Example 1, 1-cyclobutyl-2-[(3-methoxyazetidin-1-yl)methyl]-7-(1H-pyrazol-5-yl)-1H-imidazo[4,5-c]quinolin-4-amine] | 120 nM | –
2 | Nc1nc2cc(-c3cc[nH]n3)ccc2c2c1nc(CN1CC(F)(F)C1)n2CC(F)F [Example 2] | 80 nM | 1000 to 20000 nM
3 | Nc1nc2cc(-c3cc[nH]n3)ccc2c2c1nc(CN1CC(F)C1)n2CC(F)F [Example 3] | 220 nM | –
4 | Nc1nc2cc(-c3cc[nH]n3)ccc2c2c1nc(CN1CCC1)n2C1CC1 [Example 4] | 180 nM | –
5 | COC1CN(Cc2nc3c(N)nc4cc(-c5cc[nH]n5)ccc4c3n2C2CC2)C1 [Example 5] | 270 nM | –
6 | Nc1nc2cc(-c3cc[nH]n3)ccc2c2c1nc(CN1CC(F)C1)n2C1CCC1 [Example 6] | 260 nM | –
7 | COC1CN(Cc2nc3c(N)nc4cc(-c5cc[nH]n5)ccc4c3n2CC(F)F)C1 [Example 7] | 220 nM | –
8 | Nc1nc2cc(-c3cc[nH]n3)ccc2c2c1nc(CN1CC(F)(F)C1)n2C1CCC1 [Example 8] | 200 nM | –
9 | Nc1nc2cc(-c3cc[nH]n3)ccc2c2c1nc(CN1CC(F)C1)n2C1CC1 [Example 10] | 250 nM | –
10 | Nc1nc2cc(-c3cc[nH]n3)ccc2c2c1nc(CN1CC3(CCCO3)C1)n2C1CCC1 [Example 11] | 240 nM | –
11 | N#CC1CN(Cc2nc3c(N)nc4cc(-c5cc[nH]n5)ccc4c3n2C2CC2)C1 [Example 12] | 2000 nM | –

Further lines, results first:

Row | IC50 (NLRP3) | EC50 (human TLR8) | SMILES
12 | 630 nM | – | CC(C)n1c(CN2CC(C#N)C2)nc2c(N)nc3cc(-c4cc[nH]n4)ccc3c21 [Example 13]
13 | 1610 nM | – | Nc1nc2cc(-c3cc[nH]n3)ccc2c2c1nc(CN1CC3(CCCO3)C1)n2C1CC1 [Example 14]
14 | 1100 nM | – | CC(C)n1c(CN2CC(C)(O)C2)nc2c(N)nc3cc(-c4cc[nH]n4)ccc3c21 [Example 15]
15 | 4800 nM | – | Nc1nc2cc(-c3cc[nH]n3)ccc2c2c1nc(CN1CC(O)C1)n2C1CC1 [Example 16]
16 | 2200 nM | – | CC1(O)CN(Cc2nc3c(N)nc4cc(-c5cc[nH]n5)ccc4c3n2C2CCC2)C1 [Example 17]

— patent US12201627B2, “NLRP3 modulators” (Innate Tumor Immunity, Inc., priority 2018, dated 2025)
